Tested on: pERK1/2(THR202/TYR204) level in AsPC-1 cell line
Test: KRAS G12D pERK assay
Format: cell-based
Conditions: Homo sapiens, ASPC1, 2 h, AsPC-1 cells, 2 h compound treatment, HTRF
Protocol: (§1) AsPC-1 cell line was used in this study. Cells were maintained in RPMI-1640 supplemented with 10% fetal bovine serum (Thermo Fisher), 50 units/mL penicillin and streptomycin (Thermo Fisher) and kept at 37° C. in a humidified atmosphere of 5% CO2 in air. Cells were reinstated from frozen stocks that were laid down within 30 passages from the original cells purchased. 30000 cells per well were seeded into a 96-well plate and incubated overnight. Cells were treated with a 10-point dilution series. The final compound concentration is from 0 to 10 μM. After 2 h compound treatment, cells were lysed, and the pERK1/2(THR202/TYR204) level in the cell lysates was detected by HTRF kit (Cisbio). In brief, a total of 16 μL of cell lysate from each well of a 96-well plate was transferred to a 384-well white assay plate. Lysate from each well was incubated with 2 μL of Eu3+-cryptate (donor) labeled anti-phospho-ERK1/2 and 2 μL of D2 (acceptor) labeled anti-phospho-ERK1/2 antibodies (Cisbio) overnight in dark at room temperature. When donor and acceptor are in close proximity, excitation of the donor with laser triggers a Fluorescence Resonance Energy Transfer (FRET) towards the acceptor, which in turn fluoresces at 655 nm wavelength. FRET signals were measured using a PHERAstar FSX reader (BMG Labtech). IC50 determination was performed by fitting the curve of percent inhibition versus the log of the inhibitor concentration using Dotmatics.

| Compound | IC50 [µM] |
| --- | --- |
| CN1C(=O)OC2CC1(COc1nc3c4c(nc(-c5cc(N)cc(Cl)c5C(F)(F)F)c(F)c4n1)OCC[C@@H]1[C@@H]4CC[C@H](CN31)N4)C2 [Example 46, 5-((((6aR,7S,10R)-2-(5-amino-3-chloro-2-(trifluoromethyl)phenyl)-1-fluoro-5,6,6a,7,8,9,10,11-octahydro-4-oxa-3,11a,12,14,15-pentaaza-7,10-methanocyclohepta[4,5]cyclo-octa[1,2,3-de]naphthalen-13-yl)oxy)methyl)-4-methyl-2-oxa-4-azabicyclo[3.1.1]heptan-3-one] | 4.86 |
| CN1C(=O)OC2(C)CC1(COc1nc3c4c(nc(-c5cc(N)cc(Cl)c5C(F)(F)F)c(F)c4n1)OCC[C@@H]1[C@@H]4CC[C@H](CN31)N4)C2 [Example 47, 5-((((6aR,7S,10R)-2-(5-amino-3-chloro-2-(trifluoromethyl)phenyl)-1-fluoro-5,6,6a,7,8,9,10,11-octahydro-4-oxa-3,11a,12,14,15-pentaaza-7,10-methanocyclohepta[4,5]cyclo-octa[1,2,3-de]naphthalen-13-yl)oxy)methyl)-1,4-dimethyl-2-oxa-4-azabicyclo[3.1.1]heptan-3-one] | 1.93 |
| CC12COCC(COc3nc4c5c(nc(-c6cc(N)cc(Cl)c6C(F)(F)F)c(F)c5n3)OCC[C@@H]3[C@@H]5CC[C@H](CN43)N5)(C1)C2 [Example 48, 3-chloro-5-((6aR,7S,10R)-1-fluoro-13-((5-methyl-3-oxabicyclo[3.1.1]heptan-1-yl)methoxy)-5,6,6a,7,8,9,10,11-octahydro-4-oxa-3,11a,12,14,15-pentaaza-7,10-methanocyclohepta[4,5]cyclo-octa[1,2,3-de]naphthalen-2-yl)-4-(trifluoromethyl)aniline] | 0.296 |
| Cc1cc(N)cc(-c2nc3c4c(nc(OCC56COC(CF)(C5)C6)nc4c2F)N2C[C@H]4CC[C@H](N4)[C@H]2CCO3)c1C(F)(F)F [Example 49, 3-((6aR,7S,10R)-1-fluoro-13-((1-(fluoromethyl)-2-oxabicyclo[2.1.1]hexan-4-yl)methoxy)-5,6,6a,7,8,9,10,11-octahydro-4-oxa-3,11a,12,14,15-pentaaza-7,10-methanocyclohepta[4,5]cyclo-octa[1,2,3-de]naphthalen-2-yl)-5-methyl-4-(trifluoromethyl)aniline] | 0.172 |
| Nc1cc(Cl)c(C(F)(F)F)c(-c2nc3c4c(nc(OCC56COC(CF)(C5)C6)nc4c2F)N2C[C@H]4CC[C@H](N4)[C@H]2CCO3)c1 [Example 50, 3-chloro-5-((6aR,7S,10R)-1-fluoro-13-((1-(fluoromethyl)-2-oxabicyclo[2.1.1]hexan-4-yl)methoxy)-5,6,6a,7,8,9,10,11-octahydro-4-oxa-3,11a,12,14,15-pentaaza-7,10-methanocyclohepta[4,5]cyclo-octa[1,2,3-de]naphthalen-2-yl)-4-(trifluoromethyl)aniline] | 0.109 |
| Cc1cc(N)cc(-c2nc3c4c(nc(OCC56CCC(C)(C5)OC6)nc4c2F)N2C[C@H]4CC[C@H](N4)[C@H]2CCO3)c1C(F)(F)F [Example 51, 3-((6aR,7S,10R)-1-fluoro-13-((1-methyl-2-oxabicyclo[2.2.1]heptan-4-yl)methoxy)-5,6,6a,7,8,9,10,11-octahydro-4-oxa-3,11a,12,14,15-pentaaza-7,10-methanocyclohepta[4,5]cyclo-octa[1,2,3-de]naphthalen-2-yl)-5-methyl-4-(trifluoromethyl)aniline] | 0.272 |
| Nc1cc(Cl)c(C(F)(F)F)c(-c2nc3c4c(nc(OCC56COC(C(F)(F)F)(C5)C6)nc4c2F)N2C[C@H]4CC[C@H](N4)[C@H]2CCO3)c1 [Example 53, 3-chloro-5-((6aR,7S,10R)-1-fluoro-13-((1-(trifluoromethyl)-2-oxabicyclo[2.1.1]hexan-4-yl)methoxy)-5,6,6a,7,8,9,10,11-octahydro-4-oxa-3,11a,12,14,15-pentaaza-7,10-methanocyclohepta[4,5]cyclo-octa[1,2,3-de]naphthalen-2-yl)-4-(trifluoromethyl)aniline] | 0.211 |
| COC1(COc2nc3c4c(nc(-c5cc(N)cc(Cl)c5C(F)(F)F)c(F)c4n2)OCC[C@@H]2[C@@H]4CC[C@H](CN32)N4)COC1 [Example 61, 3-chloro-5-((6aR,7S,10R)-1-fluoro-13-((3-methoxyoxetan-3-yl)methoxy)-5,6,6a,7,8,9,10,11-octahydro-4-oxa-3,11a,12,14,15-pentaaza-7,10-methanocyclohepta[4,5]cyclo-octa[1,2,3-de]naphthalen-2-yl)-4-(trifluoromethyl)aniline] | 0.332 |
| COCC1(COc2nc3c4c(nc(-c5cc(N)cc(Cl)c5C(F)(F)F)c(F)c4n2)OCC[C@@H]2[C@@H]4CC[C@H](CN32)N4)COC1 [Example 62, 3-chloro-5-((6aR,7S,10R)-1-fluoro-13-((3-(methoxymethyl)oxetan-3-yl)methoxy)-5,6,6a,7,8,9,10,11-octahydro-4-oxa-3,11a,12,14,15-pentaaza-7,10-methanocyclohepta[4,5]cyclo-octa[1,2,3-de]naphthalen-2-yl)-4-(trifluoromethyl)aniline] | 0.346 |
| Nc1cc(Cl)c(C(F)(F)F)c(-c2nc3c4c(nc(OCC5(C(F)F)CCOC5)nc4c2F)N2C[C@H]4CC[C@H](N4)[C@H]2CCO3)c1 (stereo partly drawn) [Example 63, 3-chloro-5-((6aR,7S,10R)-13-((3-(difluoromethyl)tetrahydrofuran-3-yl)methoxy)-1-fluoro-5,6,6a,7,8,9,10,11-octahydro-4-oxa-3,11a,12,14,15-pentaaza-7,10-methanocyclohepta[4,5]cyclo-octa[1,2,3-de]naphthalen-2-yl)-4-(trifluoromethyl)aniline] | 0.151 |
| CC1(COc2nc3c4c(nc(-c5cc(N)cc(Cl)c5C(F)(F)F)c(F)c4n2)OCC[C@@H]2[C@@H]4CC[C@H](CN32)N4)COC1 [Example 66, 3-chloro-5-((6aR,7S,10R)-1-fluoro-13-((3-methyloxetan-3-yl)methoxy)-5,6,6a,7,8,9,10,11-octahydro-4-oxa-3,11a,12,14,15-pentaaza-7,10-methanocyclohepta[4,5]cyclo-octa[1,2,3-de]naphthalen-2-yl)-4-(trifluoromethyl)aniline] | 0.145 |
| Nc1cc(Cl)c(C(F)(F)F)c(-c2nc3c4c(nc(OCC56COCC(C5)C6)nc4c2F)N2C[C@H]4CC[C@H](N4)[C@H]2CCO3)c1 [Example 67, 3-((6aR,7S,10R)-13-((3-oxabicyclo[3.1.1]heptan-1-yl)methoxy)-1-fluoro-5,6,6a,7,8,9,10,11-octahydro-4-oxa-3,11a,12,14,15-pentaaza-7,10-methanocyclohepta[4,5]cyclo-octa[1,2,3-de]naphthalen-2-yl)-5-chloro-4-(trifluoromethyl)aniline] | 0.169 |
| CCc1cc(N)cc(-c2nc3c4c(nc(OCC56COC(C5)C6)nc4c2F)N2C[C@H]4CC[C@H](N4)[C@H]2CCO3)c1C(F)(F)F [Example 68, 3-((6aR,7S,10R)-13-((2-oxabicyclo[2.1.1]hexan-4-yl)methoxy)-1-fluoro-5,6,6a,7,8,9,10,11-octahydro-4-oxa-3,11a,12,14,15-pentaaza-7,10-methanocyclohepta[4,5]cycloocta[1,2,3-de]naphthalen-2-yl)-5-ethyl-4-(trifluoromethyl)aniline] | 0.548 |

Tested on: pERK1/2(THR202/TYR204) level in SW620 cell line
Test: KRAS G12V pERK assay
Format: cell-based
Conditions: Homo sapiens, SW-620; SW620 cells, 2 hrs compound treatment, HTRF
Protocol: as §1, with “SW620 cell” for “AsPC-1 cell”, “in RPMI 1640” for “in RPMI-1640”, “purchased. 40000” for “purchased. 30000”, “2 hrs” for “2 h”

| IC50 [µM] | Compound |
| --- | --- |
| 0.033 | N#Cc1c(N)sc2c(F)ccc(-c3c(Cl)c4c5c(nc(OC[C@@]67CCCN6C[C@H](F)C7)nc5c3F)N3CCOC[C@H]3CO4)c12 (single isomer, unassigned) [Example 14-Isomer 2] |
| 0.161 | N#Cc1c(N)sc2c(F)ccc(-c3cc4c5c(nc(OC[C@@]67CCCN6C[C@H](F)C7)nc5c3F)N3CCOC[C@H]3CO4)c12 [Example 1, 2-amino-7-fluoro-4-((S)-4-fluoro-2-(((2R,7aS)-2-fluorotetrahydro-1H-pyrrolizin-7a(5H)-yl)methoxy)-8a,9,11,12-tetrahydro-8H-[1,4]oxazino[3′,4′:3,4][1,4]oxazepino[5,6,7-de]quinazolin-5-yl)benzo[b]thiophene-3-carbonitrile] |

Source: patent US20250262222A1, “HETEROCYCLIC COMPOUNDS, COMPOSITIONS THEREOF, AND METHODS OF TREATMENT THEREWITH” (BeiGene Switzerland GmbH, priority 2022, published 2025)
